The record followed here is publication PMC8210616, “Adjuvant-free peptide vaccine targeting Clec9a on dendritic cells can induce robust antitumor immune response through Syk/IL-21 axis” (Theranostics, 2021).

Data set [1] concerns the target T1, mouse Clec9a (mClec9a) protein (Mus musculus, UniProt Q8BRU4).
T1 sequence (Q8BRU4 106-238 limits assumed): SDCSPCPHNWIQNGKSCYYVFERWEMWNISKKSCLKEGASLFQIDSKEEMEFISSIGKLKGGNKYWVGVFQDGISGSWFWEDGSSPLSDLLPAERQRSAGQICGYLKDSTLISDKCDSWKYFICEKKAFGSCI
The data set can be described thus: Binding affinity measurement by MST. The settings on record: ratio of MST KD values. The protocol: The affinity of the peptide to mouse Clec9a (mClec9a) protein was detected by microscale thermophoresis (MST) (NanoTemper Technologies GmhH, Germany). Briefly, mClec9a protein (Sino Biological, Beijing, China) was labeled with Red-NHS647 dye (NanoTemper Technologies GmhH, Germany), and the successfully labeled protein was used for affinity measurements. Peptides were diluted into serial concentrations with MST buffer. Equal volume of dye-labeled mClec9a protein was incubated with peptides at room temperature, the mixture was loaded onto capillaries (NanoTemper Technologies GmhH, Germany) and immediately analyzed by an MST instrument. The data were estimated by MO. Affinity Analysis v2.2.4.

The next data set addresses T2, mClec9a (Mus musculus, UniProt Q8BRU4).
T2 construct: expressed in transfected cells; host or cells: HEK-293T
T2 sequence (Q8BRU4 1-264 isoform Q8BRU4-4): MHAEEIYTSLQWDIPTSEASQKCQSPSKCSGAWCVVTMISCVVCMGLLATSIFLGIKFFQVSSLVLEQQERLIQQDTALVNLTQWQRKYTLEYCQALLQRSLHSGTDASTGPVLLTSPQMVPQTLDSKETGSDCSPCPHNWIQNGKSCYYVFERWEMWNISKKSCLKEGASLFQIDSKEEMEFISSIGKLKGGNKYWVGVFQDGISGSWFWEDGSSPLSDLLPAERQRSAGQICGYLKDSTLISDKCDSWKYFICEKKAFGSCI
The data set can be described thus: Peptide binding assay by flow cytometry, mClec9a-transfected HEK-293T cells. To be noted: biotinylated peptides 100 µM, 30 min on ice, SA-PE. The method, then:
(§1) HEK-293T cells were transiently transfected with pIRES2-EGFP-mClec9a plasmid, or the mock pIRES2-EGFP plasmid for binding assay. Cells (3 × 10^5) were incubated with rat serum to block Fc receptors and different biotinylated peptides for 30 min on ice. After washing three times, cells were stained with streptavidin (SA)-PE for 30 min on ice, and the samples were analyzed for binding affinity by a flow cytometry after washing once.

Another data set has as its system HEK-293T^mock cells. As to the kind of experiment: Peptide binding assay by flow cytometry, mock-transfected HEK-293T cells. To be noted: biotinylated peptides 100 µM, 30 min on ice, SA-PE. The method, then: as §1
(In general: In flow cytometry, cells or beads pass a laser one at a time.)

The subject of data set [2] is spleen cDC1s (CD45^+CD11c^+XCR1^+). As to the kind of experiment: Uptake of biotinylated peptide by spleen cDC1s in vitro. To be noted: mouse splenocytes, 6.25 µM biotinylated peptide 30 min on ice, then 2 h at 37 °C, SA-PE flow cytometry. Format: cell-based. The protocol:
Mouse splenocytes (5 × 10^5) were incubated with biotinylated GA peptide and CBP-12 for 30 min on ice, and then cells were washed three times and cultured for 2 h at 37 °C. Spleen cells were stained with anti-mouse CD45-FITC (30-F11), anti-mouse CD11c-PerCP-efluor 450 (N418), anti-mouse XCR1-BV650 (ZET) and anti-mouse CD11b-APC (M1/70). Then cells were fixed, permeabilized and further stained with SA-PE for peptide uptake analysis.

Another data set deals with spleen cDC1s. The data set can be described thus: Phagocytosis / targeting of cDC1s in vivo. The arrangement: species or system mouse. To be noted: 100 μg biotinylated peptide s.c., sacrificed after 15 min, n = 3 per group. The source says:
Based on our previous study, Asp248 and Trp250 were two key residues for Clec9a to bind with WH peptide. In order to improve the binding of WH peptide to Clec9a, a silico residue scanning approach was applied to design high affinity WH mutants. The mutants were predicted by using the module of Residue Scanning mutates function, MOE (Molecular Operating Environments) software (2018 version, Chemical Computing Group Inc, Montreal, Quebec, Canada). Two hundred and twenty peptides were obtained, among which 15 peptides were selected and synthesized for experimental identification.
For phagocytosis in vivo, 6-week-old C57BL/6 mice were s.c. vaccinated with 100 μg biotinylated peptide. After 15 min of immunization, mice were sacrificed. Splenocytes were stained with anti-mouse CD45-FITC (30-F11), anti-mouse CD11c-PerCP-efluor […]
were fixed, permeabilized and further stained with SA-PE for CBP-12 targeting […]
For phagocytosis in vitro, FL-DCs were incubated with biotinylated GA peptide and CBP-12 for 30 min on ice, then cells were washed three times and culture for 2 h at 37 °C. FL-DCs were stained with anti-mouse CD45-FITC (30-F11), anti-mouse CD11c-PerCP-efluor 450 (N418), anti-mouse XCR1-BV650 (ZET) and CD11b-APC (M1/70) to mark cDC1s and cDC2s. Then FL-DCs were fixed, permeabilized and […]

The next data set concerns FL-DCs. As to the kind of experiment: Uptake of peptide^biotin-SA-PE by FL-DCs, confocal microscopy. It is filed as cell-based, mouse. The settings on record: for effect of endocytosis inhibitor on uptake of CBP-12 by FL-DCs: pre-incubation 1 h with inhibitor, then 50 μM CBP-12^biotin-SA-PE 2 h at 37 °C. The method, then: Biotinylated peptide was mixed with SA-PE in a molar ratio of 1: 3 to obtain SA-PE labeled peptide (peptide^biotin-SA-PE). FL-DCs from wild type (WT) or Clec9a^-/- mice was harvested and washed twice with PBS before use. […] After washing, cells were incubated with Hoechst 33342 (Beyotime Biotechnology, Beijing, China) for 1 h to stain the nucleus. Cells were analyzed with a confocal laser scanning microscopy (Leica TCS SP8, Wetzlar, Germany).

Data set [3] is described as follows: In vitro enzyme degradation of peptide in mouse serum. Format: in vitro ADME. To be noted: 10% (V/V) mouse serum saline solution, peptide 1 mM, 37 °C, sampled 0, 0.25, 0.5, 1 and 2 h, residual peptide by RP-HPLC. The protocol: further stained with SA-PE. CBP-12 uptake by cDC1s and cDC2s were tested with […]
In vitro enzyme degradation of peptide
Peripheral blood of mice was stand at room temperature for 1 h, centrifuged for 10 min and then the supernatant was acquired. The peptide (1 mM) was added into 10% (V/V) serum saline solution and incubated for 2 h at 37 ℃. The samples taken at different time points were added 90% (V/V) acetonitrile-glacial acetic acid mixture and centrifuged for 15 min, then the supernatants were collected. The content of the residual peptide in samples was analyzed at 0 h, 0.25 h, 0.5 h, 1 h and 2 h by […]
CBP-12-OVA targeting to Clec9a together with adjuvant treated tumor model C57BL/6 or Clec9a−/− mice were s.c. injected with 2 × 10^5 B16-OVA cells. Three days after the tumor implantation, the mice were treated weekly for total of three times, with either 100 μg peptide or normal saline and 30 μg CpG ODN 1826 as adjuvant.
Then the mice were sacrificed after five days of the last injection.
Animal immunization and ex vitro CTL priming without adjuvant
For animal immunization and ex vivo CTL priming, female C57BL/6 mice of 6 -8 weeks were immunized with 20 μg OVA257–264, GA-OVA, CBP-12-OVA, or normal saline s.c. injected once a week for total of three times. Five days after the last

In data set [4] the test system is IL-21 in cDC1s (CD11c^+XCR1^+). As to the kind of experiment: Intracellular cytokine staining for IL-21 in FL-DCs. It is filed as cell-based, mouse. The protocol:
FL-DCs were incubated with 100 μg/mL OVA257-264, GA-OVA, CBP-12-OVA or PBS and protein transport inhibitor cocktail at 37 °C for 6 h. For Syk phosphorylation inhibition assay, FL-DCs were incubated with 2.5 μM R406 (MCE, New Jersey, USA) for 1 h and then cultured with 100 μg/mL CBP-12-OVA and protein transport inhibitor cocktail at 37 °C for 6 h. IL-21 positive frequency was detected by ICS. R406 is an ATP-competitive Syk kinase inhibitor [26]. Cells stained with anti-mouse-CD11c-APC (N418), anti-mouse/rat XCR1-Brilliant Violet 650™ (ZET) and anti-mouse-IL-21-PE (FFA21) or Rat IgG2a-PE kappa Isotype Control (eBR2a) for IL-21 production were analyzed by a flow cytometry.

The next data set deals with human Clec9a (Homo sapiens, UniProt Q6UXN8). As to the kind of experiment: Binding to human Clec9a (data not shown).
human Clec9a, sequence (Q6UXN8 whole entry): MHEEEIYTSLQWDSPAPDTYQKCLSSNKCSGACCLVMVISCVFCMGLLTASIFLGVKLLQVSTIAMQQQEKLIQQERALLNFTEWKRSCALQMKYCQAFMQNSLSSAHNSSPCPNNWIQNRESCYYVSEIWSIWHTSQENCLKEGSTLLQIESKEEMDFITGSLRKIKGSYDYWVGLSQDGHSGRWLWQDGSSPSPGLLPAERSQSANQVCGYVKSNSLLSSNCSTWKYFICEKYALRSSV
The target of data set [5] is mouse Clec9a (mClec9a) protein (mouse) (UniProt Q8BRU4). As to the kind of experiment: MST; mClec9a protein labeled with Red-NHS647 dye; peptides in serial dilution in MST buffer, room temperature; MO. Affinity Analysis v2.2.4.
The mark [6] stands for this setting: 50 µM peptide^biotin-SA-PE, 2 h, 37 °C, confocal.

Entries after “also recorded” stand apart in the source; their conditions may differ. Ends that are not written are not given here. Peptide text beside a SMILES is read from it. * marks the point of attachment. biotin = biotin on the C-terminal Lys, O=C1N[C@H]2[C@H](CS[C@H]2CCCCC(=O)*)N1; Biotin = O=C1N[C@H]2[C@H](CS[C@H]2CCCCC(=O)*)N1

As for `CC(C)[C@H](NC(=O)[C@H](CO)NC(=O)[C@H](CO)NC(=O)[C@H](Cc1c[nH]cn1)NC(=O)[C@H](Cc1ccccc1)NC(=O)[C@H](CCCNC(=N)N)NC(=O)[C@@H]1CCCN1C(=O)[C@@H](N)Cc1c[nH]c2ccccc12)C(=O)N[C@@H](CCCNC(=N)N)C(=O)N[C@@H](Cc1c[nH]cn1)C(=O)N[C@H](C(=O)N[C@@H](Cc1c[nH]cn1)C(=O)NCC(=O)NCC(=O)NCC(=O)N[C@@H](CCCCNC(=O)CCCC[C@@H]1SC[C@@H]2NC(=O)N[C@@H]21)C(=O)O)[C@@H](C)O` [CBP-12] (H-WPRFHSSVRHTHGGGK(Biotin)-OH; N-terminus and C-terminus assumed), in data set [1], the “affinity for mClec9a relative to WH peptide” value was 37.2 fold. Besides, the “binding to mClec9a-overexpressing HEK-293T cells” value at mClec9a is listed as “higher binding affinity than the other peptides”. The “binding to mock plasmid transfected HEK-293T cells” value with HEK-293T^mock cells is given as “did not bind”. Further, the “uptake by spleen cDC1s in vitro” value in [2] is given as “strong uptake”. Moreover, the “targeting of cDC1s versus cDC2s in vivo” value in the data set with spleen cDC1s is given as “could target to cDC1s but not cDC2s”. For the same molecule, in the data set on FL-DCs (setting [6]), the “fluorescence signal in FL-DCs derived from Clec9a^-/- mice” value was “much lower” and the “fluorescence signal in FL-DCs of WT mice” value is listed as “strong fluorescence signal”. Moreover, the “stability in mouse serum” value in data set [3] is “resists protease hydrolysis; also recorded: stable in mouse serum for 1 h”. Further, the “secretion of IL-21 from cDC1s, ICS” value in data set [4] (FL-DCs, 100 µg/mL peptide, 6 h, 37 °C) is listed as “stimulated the secretion of IL-21 from cDC1s”. Besides, on human Clec9a, the “binding to human Clec9a” value was “could bind”.

Consider `COc1cc(Nc2ncc(F)c(Nc3ccc4c(n3)NC(=O)C(C)(C)O4)n2)cc(OC)c1OC` [R406, reference compound], for which, in data set [4] (2.5 µM R406 for 1 h, then 100 µg/mL CBP-12-OVA 6 h), the “effect on CBP-12-OVA induced IL-21 secretion from cDC1s” value is “suppress the secretion of IL-21”.

On to `N=C(N)NC(=O)c1nc(Cl)c(N)nc1N` [amiloride, reference compound], for which the “effect of endocytosis inhibitor on uptake of CBP-12 by FL-DCs” value with FL-DCs is “inhibited”.

In the case of `CN(C)CCCN1c2ccccc2Sc2ccc(Cl)cc21` [chlorpromazine, reference compound], the “effect of endocytosis inhibitor on uptake of CBP-12 by FL-DCs” value in the data set on FL-DCs is “inhibited”.

B1: WH^biotin (WH peptide, …-GGG-K^biotin) (peptide)
peptide: WPRFHSSVFHTHGGGK(biotin)
One may read the Kd as the equilibrium constant for the complex coming apart. In [5], B1 registered a Kd of 22.7 µM.

B2: CBP-12^biotin (12-mer Clec9a binding peptide, …-GGG-K^biotin) (peptide)
peptide: WPRFHSSVRHTHGGGK(biotin)
In [5], B2 showed a Kd of 0.61 µM.
